This is an account of results in ChEMBL document CHEMBL1140184, “Synthesis and structure-activity relationship studies of highly potent novel oxazolidinone antibacterials” (2008).

What all share (type): functional
For assay [1], the system named is Staphylococcus aureus. In words: Antibacterial activity against methicillin-sensitive Staphylococcus aureus Smith by agar dilution method.
For assay [2], the system named is Staphylococcus aureus. Nature of the assay: Antibacterial activity against methicillin-resistant Staphylococcus aureus TK7 by agar dilution method. A general note: Agar dilution tests growth on a series of plates holding different concentrations.
Assay [3] concerns Streptococcus pneumoniae. In words: Antibacterial activity against penicillin-susceptible Streptococcus pneumoniae IID553 by agar dilution method.
Assay [4] relates to Streptococcus pneumoniae. In words: Antibacterial activity against penicillin-resistant Streptococcus pneumoniae PR44 by agar dilution method.
The next assay concerns Enterococcus faecium. In words: Antibacterial activity against vancomycin-resistant Enterococcus faecium A2280 by agar dilution method.
A further assay concerns Haemophilus influenzae. In words: Antibacterial activity against Haemophilus influenzae IID983 by agar dilution method.

Converted amounts (≈) assume the structure as drawn.

Turning to `N[C@]1(c2ccc(-c3ccc(N4C[C@H](Cn5ccnn5)OC4=O)cc3F)cn2)[C@@H]2CNC[C@@H]21`, the MIC against Staphylococcus aureus [1] was 1 mg/L (≈ 2.3 µM); against Staphylococcus aureus [2] it was 2 mg/L (≈ 4.59 µM); against Streptococcus pneumoniae [3], 0.5 mg/L (≈ 1.15 µM); against Streptococcus pneumoniae [4], 0.5 mg/L (≈ 1.15 µM); against Enterococcus faecium, 2 mg/L (≈ 4.59 µM); against Haemophilus influenzae it was 32 mg/L (≈ 73.5 µM).

For `CC(=O)NC[C@H]1CN(c2ccc(-c3ccc([C@@]4(C#N)[C@@H]5CNC[C@@H]54)nc3)c(F)c2)C(=O)O1`, the MIC against Staphylococcus aureus [1] stood at 0.125 mg/L (≈ 0.287 µM); in the assay on Staphylococcus aureus [2], 0.125 mg/L (≈ 0.287 µM); in the assay on Streptococcus pneumoniae [3], 0.125 mg/L (≈ 0.287 µM); in the assay with Streptococcus pneumoniae [4], 0.06 mg/L (≈ 0.138 µM); against Enterococcus faecium it was 0.25 mg/L (≈ 0.574 µM); in the assay with Haemophilus influenzae, 4 mg/L (≈ 9.19 µM).

Turning to `N#C[C@]1(c2ccc(-c3ccc(N4C[C@H](CNC(=O)C5CC5)OC4=O)cc3F)cn2)[C@@H]2CNC[C@@H]21`, the MIC against Staphylococcus aureus [1] was found to be 0.5 mg/L (≈ 1.08 µM); with Staphylococcus aureus [2], 0.25 mg/L (≈ 0.542 µM); in the assay with Streptococcus pneumoniae [3] it was 0.25 mg/L (≈ 0.542 µM); in the assay on Streptococcus pneumoniae [4], 0.25 mg/L (≈ 0.542 µM); against Enterococcus faecium it was 0.5 mg/L (≈ 1.08 µM); in the assay with Haemophilus influenzae, 8 mg/L (≈ 17.3 µM).

Take `CCC(=O)NC[C@H]1CN(c2ccc(-c3ccc([C@@]4(C#N)[C@@H]5CNC[C@@H]54)nc3)c(F)c2)C(=O)O1`: the MIC is 0.25 mg/L (≈ 0.556 µM) against Staphylococcus aureus [1]; 0.25 mg/L (≈ 0.556 µM) in the assay on Staphylococcus aureus [2]; 0.25 mg/L (≈ 0.556 µM) in the assay on Streptococcus pneumoniae [3]; 0.125 mg/L (≈ 0.278 µM) with Streptococcus pneumoniae [4]; 0.25 mg/L (≈ 0.556 µM) against Enterococcus faecium; 8 mg/L (≈ 17.8 µM) in the assay on Haemophilus influenzae.

`N#C[C@]1(c2ccc(-c3ccc(N4C[C@H](CNC(=O)C(F)F)OC4=O)cc3F)cn2)[C@@H]2CNC[C@@H]21`: the MIC amounted to 0.125 mg/L (≈ 0.265 µM) in the assay with Staphylococcus aureus [1]; 0.125 mg/L (≈ 0.265 µM) with Staphylococcus aureus [2]; 0.06 mg/L (≈ 0.127 µM) against Streptococcus pneumoniae [3]; 0.06 mg/L (≈ 0.127 µM) in the assay on Streptococcus pneumoniae [4]; 0.25 mg/L (≈ 0.53 µM) against Enterococcus faecium; 2 mg/L (≈ 4.24 µM) in the assay on Haemophilus influenzae.

Regarding `NC[C@]1(c2ccc(-c3ccc(N4C[C@H](Cn5ccnn5)OC4=O)cc3F)cn2)[C@@H]2CNC[C@@H]21`, the MIC in the assay on Staphylococcus aureus [1] came to 4 mg/L (≈ 8.9 µM); against Staphylococcus aureus [2], 4 mg/L (≈ 8.9 µM); in the assay on Streptococcus pneumoniae [3] it was 4 mg/L (≈ 8.9 µM); in the assay on Streptococcus pneumoniae [4], 8 mg/L (≈ 17.8 µM); with Enterococcus faecium, 16 mg/L (≈ 35.6 µM); in the assay with Haemophilus influenzae, 128 mg/L (≈ 285 µM).
